The text below walks through data of US7122214B2, “Drynaria extractions for treating osteoporosis and their extraction process” (priority 2000, dated 2006).

The assay can be described thus: Inventors' investigation of activity of improving osteoporosis (no method given). The following applies: no data or method given.

Take `C[C@@H]1O[C@@H](O[C@H]2[C@H](Oc3cc(O)c4c(c3)O[C@H](c3ccc(O)cc3)CC4=O)O[C@H](CO)[C@@H](O)[C@@H]2O)[C@H](O)[C@H](O)[C@H]1O` [naringin]: the “activity of improving osteoporosis” value is on record as “has the activity of improving osteoporosis” and the “efficiency in improving osteoporosis relative to the active extracts” value is listed as “lower than the active extracts”.
